Data taken from US20110071150A1 (priority 2009, published 2011).

Each molecule was assayed on Jurkat IL-2 Production (assay: Jurkat IL-2 Production Assay). Conditions: Homo sapiens, Jurkat cell (ATCC), 18-20 h incubation, PHA 5 μg/mL with 1% FBS, or PMA/Ionomycin with 30% FBS (table does not say which).
Assay type: cell-based
Outline: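 Jurkat cells were exposed to compound (0.25% DMSO final) for 10 min, then stimulated for 18–20 h at 37 °C. The 1% FBS condition used 5 μg/mL PHA; the high-serum condition (30% FBS) used 50 ng/mL PMA plus 500 ng/mL ionomycin. IC50 was derived from IL-2 production.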

First: COc1cc(C)c(-c2ccc3[nH]c(-c4c(F)cccc4Cl)cc3c2)cn1 [Example 121, 2-(2-Chloro-6-fluoro-phenyl)-5-(6-methoxy-4-methyl-pyridin-3-yl)-1H-indole]
Second: CCOc1cc(C)c(-c2ccc3[nH]c(-c4c(F)cccc4Cl)cc3c2)cn1 [Example 164, 2-(2-chloro-6-fluorophenyl)-5-(6-ethoxy-4-methylpyridin-3-yl)-1H-indole]
The IC50 of the first is 2.8-fold lower: 12 nM for the first, 33 nM for the second.

First: COc1cnc(-c2ccc3[nH]c(-c4c(F)cccc4Cl)cc3c2)c(C)c1 [Example 122, 2-(2-Chloro-6-fluoro-phenyl)-5-(5-methoxy-3-methyl-pyridin-2-yl)-1H-indole]
Second: Cc1cc(C#N)cnc1-c1ccc2[nH]c(-c3c(F)cccc3Cl)cc2c1 [Example 161, 6-(2-(2-chloro-6-fluorophenyl)-1H-indol-5-yl)-5-methylnicotinonitrile]
The IC50 of the first is 2.6-fold higher: 260 nM for the first, 99 nM for the second. The second is the more potent here.

Going from `COc1ccc(-c2ccc3[nH]c(-c4c(F)cccc4Cl)cc3c2)c(C)n1` [Example 123, 2-(2-Chloro-6-fluoro-phenyl)-5-(6-methoxy-2-methyl-pyridin-3-yl)-1H-indole] to `Cc1cc(C#N)ccc1-c1ccc2[nH]c(-c3c(F)cccc3Cl)cc2c1` [Example 158, 4-[2-(2-chloro-6-fluorophenyl)-1H-indol-5-yl]-3-methylbenzonitrile], the IC50 falls from 448 nM to 16 nM (28-fold).

Going from `CCn1nc(-c2cccnc2)nc1-c1ccc2[nH]c(-c3c(F)cccc3Cl)cc2c1` [Example 124, 2-(2-Chloro-6-fluoro-phenyl)-5-(2-ethyl-5-pyridin-3-yl-2H-[1,2,4]triazol-3-yl)-1H-indole] to `Cc1cc(Cl)ncc1-c1ccc2[nH]c(-c3c(F)cccc3Cl)cc2c1` [Example 160, 2-(2-Chloro-6-fluoro-phenyl)-5-(6-chloro-4-methyl-pyridin-3-yl)-1H-indole], the IC50 rises from 11 nM to 18 nM (1.6-fold). The first is the more potent here.

`Cc1sc(-c2ncco2)nc1-c1ccc2[nH]c(-c3c(F)cccc3Cl)cc2c1` [Example 125, 2-(2-Chloro-6-fluoro-phenyl)-5-(5-methyl-2-oxazol-2-yl-thiazol-4-yl)-1H-indole] and `Cc1cc(C#N)ncc1-c1ccc2[nH]c(-c3c(F)cccc3Cl)cc2c1` [Example 162, 5-(2-(2-chloro-6-fluorophenyl)-1H-indol-5-yl)-4-methylpicolinonitrile] are within 1.5-fold of each other in IC50: 49 nM for the first, 34 nM for the second.

First: COC(=O)c1ccc(-c2ccc3[nH]c(-c4ccccc4Cl)cc3c2)c(C)c1 [Example 126]
Second: CNC(=O)c1ccc(-c2ccc3[nH]c(-c4ccccc4Cl)cc3c2)c(C)c1 [Example 127, 4-[2-(2-Chloro-phenyl)-1H-indol-5-yl]-3,N-dimethyl-benzamide]
The IC50 of the first is 9.3-fold lower: 106 nM for the first, 991 nM for the second. The first is the more potent here.

First: Cc1cc(C(N)=O)ccc1-c1ccc2[nH]c(-c3ccccc3Cl)cc2c1 [Example 128, 4-[2-(2-Chloro-phenyl)-1H-indol-5-yl]-3-methyl-benzamide]
Second: Cc1cc(C#N)ccc1-c1ccc2[nH]c(-c3ccccc3Cl)cc2c1 [Example 129, 4-[2-(2-Chloro-phenyl)-1H-indol-5-yl]-3-methyl-benzonitrile]
The IC50 of the first is 3.3-fold higher: 776 nM for the first, 237 nM for the second. The second is the more potent here.

Going from `Cc1cc(S(=O)(=O)N(C)C)ccc1-c1ccc2[nH]c(-c3ccccc3Cl)cc2c1` [Example 130, 4-[2-(2-Chloro-phenyl)-1H-indol-5-yl]-3,N,N-trimethyl-benzenesulfonamide] to `Cc1cc(S(=O)(=O)N(C)C)ccc1-c1ccc2[nH]c(-c3c(F)cccc3Cl)cc2c1` [Example 159, 4-[2-(2-Chloro-6-fluoro-phenyl)-1H-indol-5-yl]-3,N,N-trimethyl-benzenesulfonamide], the IC50 rises from 16 nM to 25 nM (1.6-fold). The first is the more potent here.

`COC(=O)c1ccc(-c2ccc3[nH]c(-c4ccc(C(=O)OC)cc4C)cc3c2)c(C)c1` [Example 131, 4-[5-(4-carbomethoxy-2-methyl-phenyl)-1H-indol-2-yl]-3-methyl-benzoic acid methyl ester] and `Cc1cc(C#N)ccc1-c1ccc2[nH]c(-c3ccc(C#N)cc3C)cc2c1` [Example 137, 4-(2-(4-Cyano-2-methylphenyl)-1H-indol-5-yl)-3-methylbenzonitrile] are within 1.5-fold of each other in IC50: 149 nM for the first, 132 nM for the second.

First: COc1ccc(-c2cc3cc(-c4ccc(C#N)cc4C)ccc3[nH]2)c(Cl)c1 [Example 132, 4-[2-(2-Chloro-4-methoxy-phenyl)-1H-indol-5-yl]-3-methyl-benzonitrile]
Second: Cc1cc(C#N)ccc1-c1ccc2[nH]c(-c3cc(C#N)ccc3Cl)cc2c1 [Example 138, 4-(2-(2-Chloro-5-cyanophenyl)-1H-indol-5-yl)-3-methylbenzonitrile]
The IC50 of the first is 3.2-fold higher: 319 nM for the first, 101 nM for the second.

`Cc1cc(C#N)ccc1-c1ccc2[nH]c(-c3ccc(S(C)(=O)=O)cc3F)cc2c1` [Example 133, 4-[2-(2-Fluoro-4-methanesulfonyl-phenyl)-1H-indol-5-yl]-3-methyl-benzonitrile] and `Cc1cc(C#N)ccc1-c1ccc2[nH]c(-c3ccc(F)cc3F)cc2c1` [Example 141, 4-(2-(2,4-difluorophenyl)-1H-indol-5-yl)-3-methylbenzonitrile] are within 1.5-fold of each other in IC50: 976 nM for the first, 660 nM for the second.

Going from `Cc1cc(C#N)ccc1-c1ccc2[nH]c(-c3cccc(C#N)c3F)cc2c1` [Example 134, 4-[2-(2-Fluoro-3-cyano-phenyl)-1H-indol-5-yl]-3-methyl-benzonitrile] to `Cc1cc(C#N)ccc1-c1ccc2[nH]c(-c3ccccc3F)cc2c1` [Example 136, 4-(2-(2-fluorophenyl)-1H-indol-5-yl)-3-methylbenzonitrile], the IC50 rises from 163 nM to 370 nM (2.3-fold). The first is the more potent here.

`COc1cc(F)c(-c2cc3cc(-c4ccc(C#N)cc4C)ccc3[nH]2)c(F)c1` [Example 135, 4-(2-(2,6-difluoro-4-methoxyphenyl)-1H-indol-5-yl)-3-methylbenzonitrile] and `COCCOc1cc(F)c(-c2cc3cc(-c4ccc(C#N)cc4C)ccc3[nH]2)c(F)c1` [Example 153, 4-(2-(2,6-difluoro-4-(2-methoxyethoxy)phenyl)-1H-indol-5-yl)-3-methylbenzonitrile] are within 1.5-fold of each other in IC50: 283 nM for the first, 331 nM for the second.

`COc1ccc(-c2cc3cc(-c4ccc(C#N)cc4C)ccc3[nH]2)c(C)n1` [Example 139, 4-(2-(6-methoxy-2-methylpyridin-3-yl)-1H-indol-5-yl)-3-methylbenzonitrile] and `COc1cc(C)c(-c2cc3cc(-c4ccc(C#N)cc4C)ccc3[nH]2)cn1` [Example 143, 4-(2-(6-methoxy-4-methylpyridin-3-yl)-1H-indol-5-yl)-3-methylbenzonitrile] are within 1.5-fold of each other in IC50: 162 nM for the first, 182 nM for the second.

Compared with `COc1nccc(-c2cc3cc(-c4ccc(C#N)cc4C)ccc3[nH]2)c1Cl` [Example 140, 4-(2-(3-chloro-2-methoxypyridin-4-yl)-1H-indol-5-yl)-3-methylbenzonitrile], `Cc1cc(C#N)ccc1-c1ccc2[nH]c(-c3ccncc3C)cc2c1` [Example 145, methyl-4-(2-(3-methylpyridin-4-yl)-1H-indol-5-yl)benzonitrile] is 1.6-fold lower in IC50: 142 nM for the first, 89 nM for the second.

`COc1ccc(F)c(-c2cc3cc(-c4ccc(C#N)cc4C)ccc3[nH]2)c1F` [Example 142, 4-(2-(2,6-difluoro-3-methoxyphenyl)-1H-indol-5-yl)-3-methylbenzonitrile] and `Cc1cc(C#N)ccc1-c1ccc2[nH]c(-c3c(F)cc(O)cc3F)cc2c1` [Example 157, 4-(2-(2,6-difluoro-4-hydroxyphenyl)-1H-indol-5-yl)-3-methylbenzonitrile] are within 1.5-fold of each other in IC50: 167 nM for the first, 222 nM for the second.

Going from `Cc1cc(C#N)ccc1-c1ccc2[nH]c(-c3cnccc3C)cc2c1` [Example 144, methyl-4-(2-(4-methylpyridin-3-yl)-1H-indol-5-yl)benzonitrile] to `Cc1cc(C#N)ccc1-c1ccc2[nH]c(-c3cccnc3C)cc2c1` [Example 147, methyl-4-(2-(2-methylpyridin-3-yl)-1H-indol-5-yl)benzonitrile], the IC50 rises from 96 nM to 311 nM (3.2-fold). The first is the more potent here.

Going from `Cc1cc(C#N)ccc1-c1ccc2[nH]c(-c3sccc3C)cc2c1` [Example 146, methyl-4-(2-(3-methylthiophen-2-yl)-1H-indol-5-yl)benzonitrile] to `Cc1cc(C#N)ccc1-c1ccc2[nH]c(-c3cscc3C)cc2c1` [Example 149, methyl-4-(2-(4-methylthiophen-3-yl)-1H-indol-5-yl)benzonitrile], the IC50 rises from 150 nM to 286 nM (1.9-fold). The first is the more potent here.

Going from `Cc1nc(C)c(-c2cc3cc(-c4ccc(C#N)cc4C)ccc3[nH]2)s1` [Example 148, 4-(2-(2,4-dimethylthiazol-5-yl)-1H-indol-5-yl)-3-methylbenzonitrile] to `Cc1cc(C#N)ccc1-c1ccc2[nH]c(-c3c(C)noc3C)cc2c1` [Example 151, 4-(2-(3,5-dimethylisoxazol-4-yl)-1H-indol-5-yl)-3-methylbenzonitrile], the IC50 falls from 547 nM to 158 nM (3.5-fold). The second is the more potent here.

`Cc1cc(C#N)ccc1-c1ccc2[nH]c(-c3ccnn3C)cc2c1` [Example 150, methyl-4-(2-(1-methyl-1H-pyrazol-5-yl)-1H-indol-5-yl)benzonitrile] and `Cc1cc(C#N)ccc1-c1ccc2[nH]c(-c3c(F)cc(OCCO)cc3F)cc2c1` [Example 154, 4-(2-(2,6-difluoro-4-(2-hydroxyethoxy)phenyl)-1H-indol-5-yl)-3-methylbenzonitrile] are within 1.5-fold of each other in IC50: 618 nM for the first, 586 nM for the second.

First: COc1cc(C)c(-c2ccc3[nH]c(-c4cccc(C#N)c4F)cc3c2)cn1 [Example 152, 2-fluoro-3-(5-(6-methoxy-4-methylpyridin-3-yl)-1H-indol-2-yl)benzonitrile]
Second: COCCOc1cc(C)c(-c2ccc3[nH]c(-c4c(F)cccc4Cl)cc3c2)cn1 [Example 163, 2-(2-chloro-6-fluorophenyl)-5-(6-(2-methoxyethoxy)-4-methylpyridin-3-yl)-1H-indole]
The IC50 of the first is 6.8-fold higher: 731 nM for the first, 108 nM for the second. The second is the more potent here.

`Cc1cc(C#N)ccc1-c1ccc2[nH]c(-c3c(F)cc(OCCCC#N)cc3F)cc2c1` [Example 155, 4-(2-(4-(3-cyanopropoxy)-2,6-difluorophenyl)-1H-indol-5-yl)-3-methylbenzonitrile] and `Cc1cc(C#N)ccc1-c1ccc2[nH]c(-c3c(F)cc(OCCCO)cc3F)cc2c1` [Example 156, 4-(2-(2,6-difluoro-4-(3-hydroxypropoxy)phenyl)-1H-indol-5-yl)-3-methylbenzonitrile] are within 1.5-fold of each other in IC50: 87 nM for the first, 130 nM for the second.
